Broadly, the Ki is a measure of affinity in units of concentration, obtained from inhibition or displacement. What is called inhibition is the percentage by which the read-out fell short of the control. Low readings indicate a response near the control, high ones a response far below the control.

Chain of D(2) dopamine receptor (Homo sapiens) (P14416 whole entry): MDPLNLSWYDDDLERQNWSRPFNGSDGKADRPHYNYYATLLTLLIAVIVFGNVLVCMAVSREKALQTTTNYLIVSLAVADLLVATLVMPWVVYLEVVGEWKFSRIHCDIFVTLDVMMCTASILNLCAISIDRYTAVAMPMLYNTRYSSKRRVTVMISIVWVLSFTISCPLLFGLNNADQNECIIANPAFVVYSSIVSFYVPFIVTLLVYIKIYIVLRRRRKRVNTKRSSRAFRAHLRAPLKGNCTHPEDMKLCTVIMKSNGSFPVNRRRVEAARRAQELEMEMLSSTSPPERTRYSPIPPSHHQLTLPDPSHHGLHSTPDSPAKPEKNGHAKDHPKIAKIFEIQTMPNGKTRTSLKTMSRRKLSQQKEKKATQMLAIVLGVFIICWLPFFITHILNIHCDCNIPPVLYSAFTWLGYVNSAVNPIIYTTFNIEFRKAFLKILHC
Chain of Delta-type opioid receptor (Homo sapiens) (P41143 whole entry): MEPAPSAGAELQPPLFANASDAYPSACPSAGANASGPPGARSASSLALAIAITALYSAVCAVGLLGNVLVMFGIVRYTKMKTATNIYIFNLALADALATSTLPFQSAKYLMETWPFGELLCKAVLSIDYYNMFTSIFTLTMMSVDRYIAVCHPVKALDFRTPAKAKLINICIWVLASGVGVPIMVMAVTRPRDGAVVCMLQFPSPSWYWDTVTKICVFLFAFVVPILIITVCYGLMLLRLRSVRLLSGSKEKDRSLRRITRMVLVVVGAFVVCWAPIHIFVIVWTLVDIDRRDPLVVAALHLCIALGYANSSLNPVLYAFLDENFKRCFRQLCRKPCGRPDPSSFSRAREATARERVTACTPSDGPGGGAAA
Chain of Muscarinic acetylcholine receptor M3 (P20309 whole entry, looked up): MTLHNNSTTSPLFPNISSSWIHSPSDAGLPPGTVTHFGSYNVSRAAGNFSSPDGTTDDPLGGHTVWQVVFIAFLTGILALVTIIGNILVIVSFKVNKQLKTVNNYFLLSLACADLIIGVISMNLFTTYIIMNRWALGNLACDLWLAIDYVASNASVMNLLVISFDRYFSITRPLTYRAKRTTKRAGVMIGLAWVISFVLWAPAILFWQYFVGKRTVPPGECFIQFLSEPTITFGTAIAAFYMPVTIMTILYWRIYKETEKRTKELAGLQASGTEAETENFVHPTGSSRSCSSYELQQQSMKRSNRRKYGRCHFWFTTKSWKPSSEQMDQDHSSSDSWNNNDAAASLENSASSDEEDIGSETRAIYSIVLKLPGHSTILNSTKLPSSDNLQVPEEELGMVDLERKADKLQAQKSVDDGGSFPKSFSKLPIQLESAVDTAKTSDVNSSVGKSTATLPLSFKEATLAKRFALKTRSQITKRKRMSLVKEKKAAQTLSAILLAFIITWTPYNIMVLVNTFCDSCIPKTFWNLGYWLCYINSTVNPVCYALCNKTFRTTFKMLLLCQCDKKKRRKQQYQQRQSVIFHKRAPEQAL

For one experiment, the target named is Sigma non-opioid intracellular receptor 1 (Rattus norvegicus, UniProt Q9R0C9). Put plainly: Displacement of (+)-[3H]pentazocine from sigma 1 receptor in rat PC12 cells. Type of experiment: cell-based, PC-12.
Chain of Sigma non-opioid intracellular receptor 1 (Q9R0C9 whole entry): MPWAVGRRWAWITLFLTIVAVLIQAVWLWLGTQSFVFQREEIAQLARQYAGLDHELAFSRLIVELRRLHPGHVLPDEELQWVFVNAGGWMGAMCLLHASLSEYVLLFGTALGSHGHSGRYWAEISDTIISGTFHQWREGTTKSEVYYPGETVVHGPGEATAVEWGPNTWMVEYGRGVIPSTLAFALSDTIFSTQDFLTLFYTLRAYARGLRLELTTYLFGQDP
Conditions: not given
Take `CN(Cc1cccc(F)c1)[C@H]1C2C3CC4C5C3CC2C5C41` (some centres not stated): the Ki stood at 1.57 µM.

In the case of `CN(CCc1cccc(F)c1)[C@H]1C2C3CC4C5C3CC2C5C41` (some centres not stated), affinity was put at a Ki of 1.16 µM.

In the case of `Fc1cccc(CCN[C@H]2C3C4CC5C6C4CC3C6C52)c1` (some centres not stated), the Ki turned out to be 0.019 µM.

For `Fc1cccc(CN[C@H]2C3C4CC5C6C4CC3C6C52)c1` (some centres not stated), the Ki came to 0.198 µM.

In another experiment the target is Sodium-dependent noradrenaline transporter (Homo sapiens, UniProt P23975). Put plainly: Displacement of [3H]nisoxetine from human NET expressed in HEK cells.
Chain of Sodium-dependent noradrenaline transporter (P23975 whole entry): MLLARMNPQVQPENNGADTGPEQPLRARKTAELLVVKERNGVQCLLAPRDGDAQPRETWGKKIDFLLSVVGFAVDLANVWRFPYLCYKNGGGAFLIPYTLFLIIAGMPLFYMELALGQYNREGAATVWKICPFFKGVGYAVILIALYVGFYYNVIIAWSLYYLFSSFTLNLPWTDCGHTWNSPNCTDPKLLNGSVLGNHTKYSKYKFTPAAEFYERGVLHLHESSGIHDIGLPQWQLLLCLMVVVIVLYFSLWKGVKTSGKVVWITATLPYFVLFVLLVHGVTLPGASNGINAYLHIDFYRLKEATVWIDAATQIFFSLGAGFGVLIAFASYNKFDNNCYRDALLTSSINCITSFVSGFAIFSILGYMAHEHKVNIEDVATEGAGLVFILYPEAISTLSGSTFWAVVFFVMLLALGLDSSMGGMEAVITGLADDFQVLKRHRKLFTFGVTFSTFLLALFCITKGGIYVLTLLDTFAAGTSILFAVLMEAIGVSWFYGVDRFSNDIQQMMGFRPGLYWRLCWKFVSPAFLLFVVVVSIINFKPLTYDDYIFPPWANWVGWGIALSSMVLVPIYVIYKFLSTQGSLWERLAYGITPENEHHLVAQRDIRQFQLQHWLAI
Conditions: not given
Type of experiment: cell-based, HEK293. In general terms: In a radioligand displacement assay an active substance lowers the binding of a labelled ligand.
`Fc1cccc(CCN[C@H]2C3C4CC5C6C4CC3C6C52)c1` (some centres not stated) returned a Ki of 3.62 µM.

Compound `Fc1cccc(CN[C@H]2C3C4CC5C6C4CC3C6C52)c1` (some centres not stated) came in with a Ki of 5.88 µM.

Still in this experiment, the particulars now being: HEK293, concentration not given here.
`CN(Cc1cccc(F)c1)[C@H]1C2C3CC4C5C3CC2C5C41` (some centres not stated) gave an inhibition of less than 50%.

Turning to `CN(CCc1cccc(F)c1)[C@H]1C2C3CC4C5C3CC2C5C41` (some centres not stated), the inhibition is less than 50%.

A further experiment deals with T1, Alpha-1A adrenergic receptor (Homo sapiens) (UniProt P35348).
T1 sequence (whole entry): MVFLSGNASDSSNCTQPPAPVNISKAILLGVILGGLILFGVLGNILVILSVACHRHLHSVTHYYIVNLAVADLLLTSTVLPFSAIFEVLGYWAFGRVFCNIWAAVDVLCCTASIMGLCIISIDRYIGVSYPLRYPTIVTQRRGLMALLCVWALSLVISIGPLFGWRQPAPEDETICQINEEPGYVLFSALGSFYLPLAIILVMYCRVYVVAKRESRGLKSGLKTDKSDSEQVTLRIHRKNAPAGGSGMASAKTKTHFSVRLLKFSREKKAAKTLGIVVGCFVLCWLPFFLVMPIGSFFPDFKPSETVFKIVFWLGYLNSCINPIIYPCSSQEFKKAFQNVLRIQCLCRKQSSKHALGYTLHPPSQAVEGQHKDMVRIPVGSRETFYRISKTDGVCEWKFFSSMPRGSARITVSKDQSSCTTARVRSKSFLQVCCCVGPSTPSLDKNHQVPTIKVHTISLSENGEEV
Put plainly: Inhibition of alpha1A adrenergic receptor at 10 uM.
Conditions: not given
In turn, `CN(Cc1cccc(F)c1)[C@H]1C2C3CC4C5C3CC2C5C41` (some centres not stated) gave an inhibition of less than 50%.

`CN(CCc1cccc(F)c1)[C@H]1C2C3CC4C5C3CC2C5C41` (some centres not stated) yielded an inhibition of less than 50%.

Consider `Fc1cccc(CCN[C@H]2C3C4CC5C6C4CC3C6C52)c1` (some centres not stated), for which the inhibition is less than 50%.

Take `Fc1cccc(CN[C@H]2C3C4CC5C6C4CC3C6C52)c1` (some centres not stated): the inhibition is less than 50%.

Another experiment addresses T2, Alpha-2A adrenergic receptor (Homo sapiens) (UniProt P08913).
T2 sequence (whole entry): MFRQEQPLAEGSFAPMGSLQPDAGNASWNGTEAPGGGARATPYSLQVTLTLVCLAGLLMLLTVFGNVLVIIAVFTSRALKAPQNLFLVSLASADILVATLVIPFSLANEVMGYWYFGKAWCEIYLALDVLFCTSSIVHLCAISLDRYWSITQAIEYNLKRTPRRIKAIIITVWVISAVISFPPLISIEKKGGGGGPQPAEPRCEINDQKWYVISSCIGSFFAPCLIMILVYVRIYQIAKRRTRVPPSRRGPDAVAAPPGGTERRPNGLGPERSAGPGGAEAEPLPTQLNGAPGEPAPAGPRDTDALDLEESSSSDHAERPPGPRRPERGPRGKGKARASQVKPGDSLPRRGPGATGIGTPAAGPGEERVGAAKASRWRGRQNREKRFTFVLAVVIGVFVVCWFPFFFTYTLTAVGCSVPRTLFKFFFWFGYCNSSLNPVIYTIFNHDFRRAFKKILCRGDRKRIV
Put plainly: Inhibition of alpha2A adrenergic receptor at 10 uM.
Conditions: not given
For the compound `CN(Cc1cccc(F)c1)[C@H]1C2C3CC4C5C3CC2C5C41` (some centres not stated), the inhibition is less than 50%.

The compound `CN(CCc1cccc(F)c1)[C@H]1C2C3CC4C5C3CC2C5C41` (some centres not stated) registered an inhibition of less than 50%.

With `Fc1cccc(CN[C@H]2C3C4CC5C6C4CC3C6C52)c1` (some centres not stated), the inhibition was less than 50%.

For a further experiment, the target named is D(1A) dopamine receptor (Homo sapiens) (UniProt P21728). Description: Inhibition of dopamine D1 receptor at 10 uM.
Chain of D(1A) dopamine receptor (Homo sapiens) (P21728 whole entry): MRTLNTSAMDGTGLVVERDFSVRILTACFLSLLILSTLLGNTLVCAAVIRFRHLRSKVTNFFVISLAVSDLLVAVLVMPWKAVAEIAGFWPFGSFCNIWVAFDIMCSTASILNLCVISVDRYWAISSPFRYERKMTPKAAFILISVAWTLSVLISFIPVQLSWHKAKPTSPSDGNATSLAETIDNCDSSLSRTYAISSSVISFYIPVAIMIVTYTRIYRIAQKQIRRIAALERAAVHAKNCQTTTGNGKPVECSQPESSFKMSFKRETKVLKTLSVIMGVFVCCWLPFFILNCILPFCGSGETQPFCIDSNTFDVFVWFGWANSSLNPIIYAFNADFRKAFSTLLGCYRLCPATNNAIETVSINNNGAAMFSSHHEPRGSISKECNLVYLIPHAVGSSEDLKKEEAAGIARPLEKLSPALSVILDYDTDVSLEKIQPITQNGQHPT
Conditions: not given
Take `CN(Cc1cccc(F)c1)[C@H]1C2C3CC4C5C3CC2C5C41` (some centres not stated): the inhibition was less than 50%.

`CN(CCc1cccc(F)c1)[C@H]1C2C3CC4C5C3CC2C5C41` (some centres not stated) had an inhibition of less than 50%.

For `Fc1cccc(CCN[C@H]2C3C4CC5C6C4CC3C6C52)c1` (some centres not stated), the inhibition was less than 50%.

In the case of `Fc1cccc(CN[C@H]2C3C4CC5C6C4CC3C6C52)c1` (some centres not stated), the inhibition is less than 50%.

A further experiment concerns the target D(2) dopamine receptor (Homo sapiens) (UniProt P14416). Description: Inhibition of dopamine D2 receptor at 10 uM.
Conditions: not given
The compound `CN(Cc1cccc(F)c1)[C@H]1C2C3CC4C5C3CC2C5C41` (some centres not stated) registered an inhibition of less than 50%.

In turn, `CN(CCc1cccc(F)c1)[C@H]1C2C3CC4C5C3CC2C5C41` (some centres not stated) yielded an inhibition of less than 50%.

Compound `Fc1cccc(CCN[C@H]2C3C4CC5C6C4CC3C6C52)c1` (some centres not stated) showed an inhibition of less than 50%.

On to `Fc1cccc(CN[C@H]2C3C4CC5C6C4CC3C6C52)c1` (some centres not stated), for which the inhibition is less than 50%.

In the next experiment the target is D(3) dopamine receptor (Homo sapiens, UniProt P35462). Description: Inhibition of dopamine D3 receptor.
Chain of D(3) dopamine receptor (P35462 whole entry): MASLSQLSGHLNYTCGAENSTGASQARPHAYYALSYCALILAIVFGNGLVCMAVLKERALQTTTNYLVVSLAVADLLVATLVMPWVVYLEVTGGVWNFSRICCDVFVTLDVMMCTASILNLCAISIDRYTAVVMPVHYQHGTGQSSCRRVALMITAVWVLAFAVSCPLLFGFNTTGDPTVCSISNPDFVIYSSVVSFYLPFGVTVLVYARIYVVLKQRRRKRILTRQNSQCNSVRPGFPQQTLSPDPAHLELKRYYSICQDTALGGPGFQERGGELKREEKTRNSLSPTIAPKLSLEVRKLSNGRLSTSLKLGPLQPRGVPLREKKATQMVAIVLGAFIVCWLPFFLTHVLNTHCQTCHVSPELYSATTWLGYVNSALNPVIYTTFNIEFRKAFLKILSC
Conditions: not given
Turning to `CN(CCc1cccc(F)c1)[C@H]1C2C3CC4C5C3CC2C5C41` (some centres not stated), the Ki is more than 10 µM.

In turn, `Fc1cccc(CCN[C@H]2C3C4CC5C6C4CC3C6C52)c1` (some centres not stated) gave a Ki of 5.21 µM.

Turning to `Fc1cccc(CN[C@H]2C3C4CC5C6C4CC3C6C52)c1` (some centres not stated), the Ki is 7.16 µM.

For another experiment, the target named is 5-hydroxytryptamine receptor 1E (Homo sapiens) (UniProt P28566). Put plainly: Inhibition of 5HT1E receptor at 10 uM.
Chain of 5-hydroxytryptamine receptor 1E (Homo sapiens) (P28566 whole entry): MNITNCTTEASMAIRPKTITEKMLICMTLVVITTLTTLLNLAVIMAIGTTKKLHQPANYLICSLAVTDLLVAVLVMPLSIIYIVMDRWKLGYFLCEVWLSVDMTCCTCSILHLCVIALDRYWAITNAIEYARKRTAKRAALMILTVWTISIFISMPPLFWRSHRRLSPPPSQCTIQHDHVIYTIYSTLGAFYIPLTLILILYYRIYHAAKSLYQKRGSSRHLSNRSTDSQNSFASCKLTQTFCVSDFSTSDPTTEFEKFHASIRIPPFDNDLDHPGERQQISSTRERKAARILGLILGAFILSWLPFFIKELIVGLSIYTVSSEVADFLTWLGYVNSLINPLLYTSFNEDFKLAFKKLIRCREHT
Conditions: not given
In the case of `CN(Cc1cccc(F)c1)[C@H]1C2C3CC4C5C3CC2C5C41` (some centres not stated), the inhibition was less than 50%.

For `CN(CCc1cccc(F)c1)[C@H]1C2C3CC4C5C3CC2C5C41` (some centres not stated), the inhibition is less than 50%.

Regarding `Fc1cccc(CCN[C@H]2C3C4CC5C6C4CC3C6C52)c1` (some centres not stated), the inhibition is less than 50%.

In turn, `Fc1cccc(CN[C@H]2C3C4CC5C6C4CC3C6C52)c1` (some centres not stated) gave an inhibition of less than 50%.

The target of a further experiment is T3, 5-hydroxytryptamine receptor 2C (Homo sapiens) (UniProt P28335).
T3 sequence (whole entry): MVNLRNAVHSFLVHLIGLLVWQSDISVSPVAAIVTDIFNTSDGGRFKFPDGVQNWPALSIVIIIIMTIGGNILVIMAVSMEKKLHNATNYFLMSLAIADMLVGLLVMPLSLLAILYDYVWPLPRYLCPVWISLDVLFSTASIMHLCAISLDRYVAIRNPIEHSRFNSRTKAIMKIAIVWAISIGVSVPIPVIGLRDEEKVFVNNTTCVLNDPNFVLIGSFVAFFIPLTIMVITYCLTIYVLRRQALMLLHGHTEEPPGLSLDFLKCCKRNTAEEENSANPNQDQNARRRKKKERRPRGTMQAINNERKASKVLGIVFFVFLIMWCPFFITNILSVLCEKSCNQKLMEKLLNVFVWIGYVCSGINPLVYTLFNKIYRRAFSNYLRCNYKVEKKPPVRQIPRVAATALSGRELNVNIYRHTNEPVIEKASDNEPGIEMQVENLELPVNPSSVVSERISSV
Put plainly: Inhibition of 5HT2C receptor at 10 uM.
Conditions: not given
`CN(Cc1cccc(F)c1)[C@H]1C2C3CC4C5C3CC2C5C41` (some centres not stated) registered an inhibition of less than 50%.

Turning to `CN(CCc1cccc(F)c1)[C@H]1C2C3CC4C5C3CC2C5C41` (some centres not stated), the inhibition was less than 50%.

In the case of `Fc1cccc(CCN[C@H]2C3C4CC5C6C4CC3C6C52)c1` (some centres not stated), the inhibition is less than 50%.

In turn, `Fc1cccc(CN[C@H]2C3C4CC5C6C4CC3C6C52)c1` (some centres not stated) came in with an inhibition of less than 50%.

The target of another experiment is T4, Muscarinic acetylcholine receptor M2 (Homo sapiens) (UniProt P08172).
T4 sequence (whole entry): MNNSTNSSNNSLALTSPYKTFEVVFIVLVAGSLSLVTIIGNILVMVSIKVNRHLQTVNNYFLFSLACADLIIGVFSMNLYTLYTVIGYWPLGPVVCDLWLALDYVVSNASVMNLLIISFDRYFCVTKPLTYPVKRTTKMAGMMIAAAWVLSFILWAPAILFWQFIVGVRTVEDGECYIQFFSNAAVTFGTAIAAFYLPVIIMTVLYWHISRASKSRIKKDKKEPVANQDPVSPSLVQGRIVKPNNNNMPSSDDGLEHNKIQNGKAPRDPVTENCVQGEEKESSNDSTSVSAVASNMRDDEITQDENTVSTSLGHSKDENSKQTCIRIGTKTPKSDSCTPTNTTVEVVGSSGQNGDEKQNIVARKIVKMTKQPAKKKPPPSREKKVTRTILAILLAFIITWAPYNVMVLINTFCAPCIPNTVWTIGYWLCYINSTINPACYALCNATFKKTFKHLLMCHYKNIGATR
Put plainly: Inhibition of muscarinic M2 receptor at 10 uM.
Conditions: not given
In turn, `CN(Cc1cccc(F)c1)[C@H]1C2C3CC4C5C3CC2C5C41` (some centres not stated) had an inhibition of less than 50%.

For `CN(CCc1cccc(F)c1)[C@H]1C2C3CC4C5C3CC2C5C41` (some centres not stated), the inhibition is less than 50%.

For `Fc1cccc(CN[C@H]2C3C4CC5C6C4CC3C6C52)c1` (some centres not stated), the inhibition was less than 50%.

A further experiment concerns the target Muscarinic acetylcholine receptor M3 (Homo sapiens, UniProt P20309). Put plainly: Inhibition of muscarinic M3 receptor at 10 uM.
Conditions: not given
In turn, `CN(Cc1cccc(F)c1)[C@H]1C2C3CC4C5C3CC2C5C41` (some centres not stated) returned an inhibition of less than 50%.

Turning to `CN(CCc1cccc(F)c1)[C@H]1C2C3CC4C5C3CC2C5C41` (some centres not stated), the inhibition was less than 50%.

`Fc1cccc(CN[C@H]2C3C4CC5C6C4CC3C6C52)c1` (some centres not stated) displayed an inhibition of less than 50%.

For a further experiment, the target named is T5, Muscarinic acetylcholine receptor M5 (Homo sapiens) (UniProt P08912).
T5 sequence (whole entry): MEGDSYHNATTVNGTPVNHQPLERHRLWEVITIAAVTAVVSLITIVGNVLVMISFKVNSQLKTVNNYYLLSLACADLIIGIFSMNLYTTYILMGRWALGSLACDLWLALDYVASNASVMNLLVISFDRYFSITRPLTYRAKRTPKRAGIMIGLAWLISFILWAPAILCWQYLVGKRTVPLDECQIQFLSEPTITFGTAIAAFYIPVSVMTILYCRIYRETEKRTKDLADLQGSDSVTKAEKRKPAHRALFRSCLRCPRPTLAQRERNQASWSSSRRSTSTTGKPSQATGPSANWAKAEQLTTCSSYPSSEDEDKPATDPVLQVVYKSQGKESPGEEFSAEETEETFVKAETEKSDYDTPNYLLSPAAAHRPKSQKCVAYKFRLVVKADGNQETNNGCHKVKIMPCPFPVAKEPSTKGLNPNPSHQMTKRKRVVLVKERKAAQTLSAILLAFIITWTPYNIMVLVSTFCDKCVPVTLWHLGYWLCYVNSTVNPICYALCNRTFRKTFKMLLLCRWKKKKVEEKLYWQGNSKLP
Put plainly: Inhibition of muscarinic M5 receptor at 10 uM.
Conditions: not given
The compound `CN(Cc1cccc(F)c1)[C@H]1C2C3CC4C5C3CC2C5C41` (some centres not stated) gave an inhibition of less than 50%.

`CN(CCc1cccc(F)c1)[C@H]1C2C3CC4C5C3CC2C5C41` (some centres not stated) displayed an inhibition of less than 50%.

Compound `Fc1cccc(CN[C@H]2C3C4CC5C6C4CC3C6C52)c1` (some centres not stated) came in with an inhibition of less than 50%.

Another experiment concerns the target Delta-type opioid receptor (Homo sapiens) (UniProt P41143). Put plainly: Inhibition of delta opioid receptor at 10 uM.
Conditions: not given
Turning to `CN(Cc1cccc(F)c1)[C@H]1C2C3CC4C5C3CC2C5C41` (some centres not stated), the inhibition is less than 50%.

As for `CN(CCc1cccc(F)c1)[C@H]1C2C3CC4C5C3CC2C5C41` (some centres not stated), the inhibition is less than 50%.

As to `Fc1cccc(CCN[C@H]2C3C4CC5C6C4CC3C6C52)c1` (some centres not stated), the inhibition is less than 50%.

In the case of `Fc1cccc(CN[C@H]2C3C4CC5C6C4CC3C6C52)c1` (some centres not stated), the inhibition is less than 50%.

(Values after ChEMBL document CHEMBL1641373, “Trishomocubane as a scaffold for the development of selective dopamine transporter (DAT) ligands” (Bioorg Med Chem Lett, 2011).)
